# Results as given in US20240270759A1, “Preparation of SHP2 phosphatase inhibitors and its applications” (Ya Therapeutics Inc, priority 2021, published 2024).
# Biological target: T1, SHP2 full-length protein (Homo sapiens, UniProt Q06124)
# T1 construct: purchased BPS Bioscience #79330
# T1 sequence (Q06124 1-593): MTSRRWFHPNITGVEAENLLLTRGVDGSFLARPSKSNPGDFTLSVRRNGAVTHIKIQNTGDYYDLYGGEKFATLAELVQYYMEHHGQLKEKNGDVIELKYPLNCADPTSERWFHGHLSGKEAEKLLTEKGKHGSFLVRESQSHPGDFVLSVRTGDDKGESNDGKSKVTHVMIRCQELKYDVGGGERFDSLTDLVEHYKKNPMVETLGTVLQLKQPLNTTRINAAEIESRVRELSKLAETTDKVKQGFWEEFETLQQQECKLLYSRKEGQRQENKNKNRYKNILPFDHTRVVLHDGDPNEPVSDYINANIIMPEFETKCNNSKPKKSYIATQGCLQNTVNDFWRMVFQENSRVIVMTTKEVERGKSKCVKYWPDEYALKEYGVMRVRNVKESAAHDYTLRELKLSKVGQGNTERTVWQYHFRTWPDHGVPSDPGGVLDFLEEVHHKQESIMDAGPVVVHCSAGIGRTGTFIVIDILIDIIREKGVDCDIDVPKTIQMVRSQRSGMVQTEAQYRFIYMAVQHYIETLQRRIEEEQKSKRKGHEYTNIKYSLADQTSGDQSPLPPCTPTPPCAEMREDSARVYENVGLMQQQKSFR
# Assay: SHP2 allosteric inhibition experiment (Homogeneous Full Length SHP-2 Assay Kit)
# Assay type: biochemical
# Conditions: full-length SHP2 0.06 nM with SHP-2 activating peptide; ten-point, 1 μM to 0.05 nM; read-out: IC50 Values of Compounds Inhibiting SHP2
# Text: The following further describes and explains the present invention in combination with test examples, but these examples are not meant to limit the scope of the present invention. SHP2 allosteric inhibition experiment
# The purpose of this test is to measure the ability of the compounds to inhibit the allosteric activity of the SHP2 full-length protein. Experimental equipment: a centrifuge (5810R) is purchased from Eppendorf Company; pipettes are purchased from Eppendorf Company and Rainin Company, and microplate readers are purchased from BioTek Company of the United States, SynergyH1 multimode microplate reader.
# Experimental method: Homogeneous Full Length SHP-2 Assay Kit (BPS Bioscience, #79330) is used to detect SHP2 activity in vitro. First, add 18 μL of Master Mix to 96-well low-adsorption microplate (NUNC, #267342), that is, 0.5 μL of SHP-2 activating Peptide and 5 mM DTT are included in the reaction buffer with a final concentration of 1×. After centrifugation, add 5 μL of the compound to be tested in DMSO (final DMSO content is 1% (V/V) in each well: dissolve the compound to be tested in DMSO to 1 mM, conduct triple dilution with a total of 10 concentration levels ranging from 1 μM to 0.05 nM in the reaction buffer. After diluting SHP2 in 1× reaction buffer to a final concentration of 0.06 nM, add it to the reaction microwell plate, 2 μL per well. Set a full activity control ([…]) and a full inhibition control (without SHP-2) on the reaction plate, and incubate the reaction mixture at room temperature for 60 minutes after centrifugation.
# After incubation, add 25 μL of Substrate solution to each well, containing Substrate with a final concentration of 10 μM and DTT with a final concentration of 5 mM, and after centrifugation, continue to incubate at room temperature for 30 minutes. After the reaction, set the excitation wavelength at 340 nm, the emission wavelength at 455 nm, and the gain value to 75 on the Synergy H1 microplate reader (Biotek) for reading.
# Take the full activity control and full inhibition control as the values of Max and Min, and calculate the percentage inhibition rate of the wells treated with the compound based on the positive control wells (DMSO control wells) and negative control wells (no kinase added) on the reaction plate, (inhibition rate percentage=100−[(test compound−Min average value)/(Max average value−Min average value)]×100%. IC50 values of test compounds are calculated by fitting percentage of inhibition and ten-point concentration data to a 4-parameter nonlinear logic formula using GraphPad prism.
row,Compound,IC50 [nM]
1,"C[C@@H]1OCC2(CCN(c3ncc(Sc4cccc(-c5ccncn5)c4Cl)cn3)CC2)[C@@H]1N [Compound 118, (3S,4S)-8-(5-((2-chloro-3-(pyrimidine-4-yl)phenyl)mercapto)pyrimidine-2-yl)-3-methyl-2-oxa-8-azaspiro[4.5]decane-4-amine]",≤ 10
2,"N-(3-((5-((3S,4S)-4-amino-3-methyl-2-oxa-8-azaspiro[4.5]decane-8-yl)pyridazine-3-yl) mercapto)-2-chlorophenyl)-2-hydroxy-4-oxa-6,7,8,9-tetrahydro-4H-pyridinyl[1,2-a]pyrimidine-3-carboxamide [Compound 136]",≤ 10
3,"Nc1nccc(-n2c(=O)[nH]c3nc(N4CCC5(CC4)Cc4cccnc4[C@H]5N)cnc3c2=O)c1Cl [Compound 22, (S)-3-(2-amino-3-chloropyridine-4-yl)-7-(7-amino-5,7-dihydrospiro[cyclopenta[b]pyridine-6,4′-piperidine]-1′-yl)pteridine-2,4(1H,3H)-dione]",≤ 10
4,C[C@@H]1OCC2(CCN(c3cnc4c(=O)n(-c5ccnc(NC6CC6)c5Cl)c(=O)[nH]c4n3)CC2)[C@@H]1N [Compound 23],≤ 10
5,"C[C@@H]1OCC2(CCN(c3ncc(Sc4cccc(NC(=O)c5c(O)nc6n(c5=O)CCCC6)c4Cl)nn3)CC2)[C@@H]1N [Compound 130, N-(3-((2-((3S,4S)-4-amino-3-methyl-2-oxa-8-azaspiro[4.5]decane-8-yl)-1,2,4-triazine-6-yl)mercapto)-2-chlorophenyl)-2-hydroxy-4-oxo-6,7,8,9-tetrahydro-4H-pyridinyl[1,2-a]pyrimidine-3-carboxamide]",≤ 10
6,"CCn1ccc(-c2cccc(Sc3ncc4nc(N5CCC6(CC5)CO[C@@H](C)[C@H]6N)ccc4n3)c2Cl)n1 [Compound 68, (3S,4S)-8-(2-((2-chloro-3-(1-ethyl-1H-pyrazole-3-yl)phenyl)mercapto)pyridinyl[3,2-d]pyrimidine-6-yl)-3-methyl-2-oxa-8-azaspiro[4.5]decane-4-amine]",≤ 10
7,"C[C@@H]1OCC2(CCN(c3cnc4nc(Sc5cccc(-c6ccncn6)c5Cl)ncc4n3)CC2)[C@@H]1N [Compound 75, (3S,4S)-8-(2-((2-chloro-3-(pyrimidine-4-yl)phenyl)mercapto)pteridine-6-yl)-3-methyl-2-oxa-8-azaspiro[4.5]decane-4-amine]",≤ 10
8,"Nc1nccc(-n2c(=O)[nH]c3nc(N4CCC5(CC4)Cc4cnccc4[C@H]5N)ccc3c2=O)c1Cl [Compound 27, (S)-3-(2-amino-3-chloropyridine-4-yl)-7-(5-amino-5,7-dihydrospiro[cyclopenta[c]pyridine-6,4′-piperidine]-1′-yl) pyridinyl[2,3-d]pyrimidine-2,4(1H,3H)-dione]",≤ 10
9,"C[C@@H]1OCC2(CCN(c3ncc4nc(Sc5cccc(NC(=O)c6ccncn6)c5Cl)cnc4n3)CC2)[C@@H]1N [Compound 82, N-(3-((2-((3S,4S)-4-amino-3-methyl-2-oxa-8-azaspiro[4.5]decane-8-yl)pteridine-6-yl)mercapto)-2-chlorophenyl)pyrimidine-4-carboxamide]",≤ 10
10,"N[C@@H]1c2ccncc2CC12CCN(c1ccc3c(=O)n(-c4cccc(Cl)c4Cl)c(=O)[nH]c3n1)CC2 [Compound 26, (S)-7-(5-Amino-5,7-dihydrospiro [cyclopenta[c]pyridine-6,4′-piperidine]-1′-yl)-3-(2,3-dichlorophenyl)pyridinyl[2,3-d]pyrimidine-2,4(1H,3H)-dione]",≤ 10
11,"C[C@@H]1OCC2(CCN(c3ccc(Sc4cccc(-c5cnccn5)c4Cl)nn3)CC2)[C@@H]1N [Compound 132, (3S,4S)-8-(3-((2-chloro-3-(pyrazine-2-yl)phenyl)mercapto)pyridazine-6-yl)-3-methyl-2-oxa-8-azaspiro[4.5]decane-4-amine]",≤ 10
12,"C[C@@H]1OCC2(CCN(c3ccc4nc(Sc5cccc(NC(=O)c6c(O)nc7n(c6=O)CCCC7)c5Cl)ncc4n3)CC2)[C@@H]1N [Compound 89, N-(3-((6-((3S,4S)-4-amino-3-methyl-2-oxa-8-azaspiro[4.5]decane-8-yl)pyridinyl[3,2-d]pyrimidine-2-yl)mercapto)-2-chlorophenyl)-2-hydroxy-4-oxo-6,7,8,9-tetrahydro-4H-pyridinyl[1,2-a]pyrimidine-3-carboxamide]",≤ 10
13,"C[C@@H]1OCC2(CCN(c3cnc(Sc4cccc(-c5cnccn5)c4Cl)nn3)CC2)[C@@H]1N [Compound 134, (3S,4S)-8-(3-((2-chloro-3-(pyrazine-2-yl)phenyl)mercapto)-1,2,4-triazine-6-yl)-3-methyl-2-oxa-8-azaspiro[4.5]decane-4-amine]",≤ 10
14,"C[C@@H]1OCC2(CCN(c3cnc(Sc4cccc(-c5cccnc5)c4Cl)nc3)CC2)[C@@H]1N [Compound 105, (3S,4S)-8-(2-((2-chloro-3-(pyridine-3-yl)phenyl)mercapto)pyrimidine-5-yl)-3-methyl-2-oxa-8-azaspiro[4.5]decane-4-amine]",≤ 10
15,"C[C@@H]1OCC2(CCN(c3ccc4nc(Sc5cccc(NC(=O)c6ccncn6)c5Cl)ncc4n3)CC2)[C@@H]1N [Compound 83, N-(3-((6-((3S,4S)-4-amino-3-methyl-2-oxa-8-azaspiro[4.5]decane-8-yl)pyridinyl[3,2-d]pyrimidine-2-yl)mercapto)-2-chlorophenyl)pyrimidine-4-carboxamide]",≤ 10
16,"C[C@@H]1OCC2(CCN(c3ccc4c(=O)n(-c5cccc(Cl)c5Cl)c(=O)[nH]c4n3)CC2)[C@@H]1N [Compound 25, 7-((3S,4S)-4-amino-3-methyl-2-oxa-8-azaspiro[4.5]decane-8-yl)-3-(2,3-dichlorophenyl)pyridinyl[2,3-d]pyrimidine-2,4(1H,3H)-dione]",≤ 10
17,C[C@@H]1OCC2(CCN(c3ccc4nc(Sc5cccc(-c6cccnc6)c5Cl)ncc4n3)CC2)[C@@H]1N [Compound 80],≤ 10
18,"N[C@@H]1c2ccccc2CC12CCN(c1cnc3c(=O)n(-c4cccc(Cl)c4Cl)c(=O)[nH]c3n1)CC2 [Compound 13, (S)-7-(1-amino-1,3-dihydrospiro[indene-2,4′-piperidine]-1′-yl)-3-(2,3-dichlorophenyl) pteridine-2,4(1H,3H)-dione]",10 to 100
19,"C[C@@H]1OCC2(CCN(c3ccc4nc(Sc5cccc(-c6ccn(C)n6)c5Cl)ncc4n3)CC2)[C@@H]1N [Compound 65, (3S,4S)-8-(2-((2-chloro-3-(1-methyl-1H-pyrazole-3-yl)phenyl)mercapto)pyridinyl[3,2-d]pyrimidine-6-yl)-3-methyl-2-oxa-8-azaspiro[4.5]decane-4-amine]",≤ 10
20,"C[C@@H]1OCC2(CCN(c3cnc4nc(Sc5cccc(NC(=O)c6ccncn6)c5Cl)ncc4n3)CC2)[C@@H]1N [Compound 81, N-(3-((6-((3S,4S)-4-amino-3-methyl-2-oxa-8-azaspiro[4.5]decane-8-yl)pteridine-2-yl)mercapto)-2-chlorophenyl)pyrimidine-4-carboxamide]",≤ 10
21,C[C@@H]1OCC2(CCN(c3cnc4nc(Sc5cccc(Oc6ccn(C)n6)c5Cl)ncc4n3)CC2)[C@@H]1N [Compound 94],≤ 10
22,"C[C@@H]1OCC2(CCN(c3ncc4nc(Sc5cccc(NC(=O)c6cnccn6)c5Cl)cnc4n3)CC2)[C@@H]1N [Compound 85, N-(3-((2-((3S,4S)-4-amino-3-methyl-2-oxa-8-azaspiro[4.5]decane-8-yl)pteridine-6-yl)mercapto)-2-chlorophenyl)pyrazine-2-carboxamide]",≤ 10
